# Test system: SARS-CoV-2
# Assay: In vitro antiviral cell-based assay (live SARS-CoV-2), plaque reduction assay in VeroE6 cells
# Conditions: Severe acute respiratory syndrome coronavirus 2, Vero, read-out: Vero EC50 (μM)
smiles,measurement,value
"CC(C(=O)NC1CCC(F)(F)CC1)(c1cncnc1)N(C(=O)[C@H](F)Cl)c1ccc(-c2cncs2)cc1 (single isomer, unassigned) [Example 1a]",EC50,0.1 to 1 µM
